Data set [1] has as its system MCF7. As to the kind of experiment: Antiproliferative activity against human MCF7 cells assessed as inhibition rate at 50 uM incubated for 48 hrs by CCK-8 assay. The format is functional. (In general: Formazan colour is commonly taken as a measure of viable cells.)
Data set [2] in a line: Antiproliferative activity against human MCF7/ADR cells assessed as inhibition rate at 50 uM incubated for 48 hrs by CCK-8 assay. The data set is classed as functional. The conditions noted are these: NCI/ADR-RES.
The test system of data set [3] is MCF7. The data set is described as follows: Antiproliferative activity against human MCF7 cells assessed as inhibition rate at 10 uM incubated for 48 hrs by CCK-8 assay. The format is functional.
A short description of data set [4]: Antiproliferative activity against human MCF7/ADR cells assessed as inhibition rate at 10 uM incubated for 48 hrs by CCK-8 assay. The data set is classed as functional. The conditions noted are these: NCI/ADR-RES.
The subject of data set [5] is NCI/ADR-RES. As to the kind of experiment: Antiproliferative activity against human MCF7/ADR cells incubated for 48 hrs by CCK-8 assay. The data set is classed as functional, cell-based.
Data set [6] addresses T1, ATP-dependent translocase ABCB1 (Homo sapiens, UniProt P08183). As to the kind of experiment: Inhibition of P-glycoprotein in human MCF7/ADR cells assessed as reversal fold by measuring reduction in vincristine IC50 at 5 uM incubated for 48 hrs by CCK-8 assay. The format is cell-based. The note with it: nci/adr-res.
The test system of data set [7] is NCI/ADR-RES. As to the kind of experiment: Effect on P-glycoprotein expression in human MCF7/ADR cells upto 10 uM after 48 hrs by Western blot analysis. The format is functional, cell-based. The note with it: dose microM <=10, time 48.0 hrs. (A western blot detects proteins with antibodies after separation by electrophoresis.)
Data set [8] deals with T1, ATP-dependent translocase ABCB1. As to the kind of experiment: Inhibition of P-glycoprotein in human MCF7/ADR cells assessed as reversal fold by measuring reduction in doxorubicin IC50 at 0.05 uM incubated for 48 hrs by CCK-8 assay. The data set is classed as cell-based. The note with it: nci/adr-res.
The target is the same in data set [9]. The data set is described as follows: Inhibition of P-glycoprotein in human MCF7/ADR cells assessed as reversal fold by measuring reduction in doxorubicin IC50 at 0.5 uM incubated for 48 hrs by CCK-8 assay. The format is cell-based. The conditions noted are these: nci/adr-res.
For data set [10] the target is unchanged. The data set is described as follows: Inhibition of P-glycoprotein in human MCF7/ADR cells assessed as rhodamine-123 accumulation by measuring fluorescence intensity at 0.1 uM measured after 30 mins by flow cytometry analysis. The format is cell-based. The conditions noted are these: nci/adr-res, 0.5 h.
Data set [11] has the same target. As to the kind of experiment: Inhibition of P-glycoprotein in human MCF7/ADR cells assessed as rhodamine-123 accumulation by measuring fluorescence intensity at 1 uM measured after 30 mins by flow cytometry analysis. The note with it: nci/adr-res, 0.5 h. The format is cell-based. Background: A flow cytometer gives signals particle by particle.
Data set [12] has the same target. As to the kind of experiment: Inhibition of P-glycoprotein in human MCF7/ADR cells assessed as rhodamine-123 accumulation by measuring fluorescence intensity at 10 uM measured after 30 mins by flow cytometry analysis. The conditions noted are these: nci/adr-res, 0.5 h. The data set is classed as cell-based.
The target is the same in data set [13]. The data set is described as follows: Inhibition of P-glycoprotein in human MCF7/ADR cells assessed as reversal fold by measuring reduction in paclitaxel IC50 at 5 uM incubated for 48 hrs by CCK-8 assay. The data set is classed as cell-based. The conditions noted are these: nci/adr-res.
The target is the same in data set [14]. The data set is described as follows: Inhibition of P-glycoprotein in human MCF7/ADR cells assessed as reversal fold by measuring reduction in daunorubicin IC50 at 5 uM incubated for 48 hrs by CCK-8 assay. The conditions noted are these: nci/adr-res. The data set is classed as cell-based.

Structures are written as SMILES. Calls of active or inactive are those of the source. No cut-off for these calls is given here.

T1 sequence (P08183 whole entry): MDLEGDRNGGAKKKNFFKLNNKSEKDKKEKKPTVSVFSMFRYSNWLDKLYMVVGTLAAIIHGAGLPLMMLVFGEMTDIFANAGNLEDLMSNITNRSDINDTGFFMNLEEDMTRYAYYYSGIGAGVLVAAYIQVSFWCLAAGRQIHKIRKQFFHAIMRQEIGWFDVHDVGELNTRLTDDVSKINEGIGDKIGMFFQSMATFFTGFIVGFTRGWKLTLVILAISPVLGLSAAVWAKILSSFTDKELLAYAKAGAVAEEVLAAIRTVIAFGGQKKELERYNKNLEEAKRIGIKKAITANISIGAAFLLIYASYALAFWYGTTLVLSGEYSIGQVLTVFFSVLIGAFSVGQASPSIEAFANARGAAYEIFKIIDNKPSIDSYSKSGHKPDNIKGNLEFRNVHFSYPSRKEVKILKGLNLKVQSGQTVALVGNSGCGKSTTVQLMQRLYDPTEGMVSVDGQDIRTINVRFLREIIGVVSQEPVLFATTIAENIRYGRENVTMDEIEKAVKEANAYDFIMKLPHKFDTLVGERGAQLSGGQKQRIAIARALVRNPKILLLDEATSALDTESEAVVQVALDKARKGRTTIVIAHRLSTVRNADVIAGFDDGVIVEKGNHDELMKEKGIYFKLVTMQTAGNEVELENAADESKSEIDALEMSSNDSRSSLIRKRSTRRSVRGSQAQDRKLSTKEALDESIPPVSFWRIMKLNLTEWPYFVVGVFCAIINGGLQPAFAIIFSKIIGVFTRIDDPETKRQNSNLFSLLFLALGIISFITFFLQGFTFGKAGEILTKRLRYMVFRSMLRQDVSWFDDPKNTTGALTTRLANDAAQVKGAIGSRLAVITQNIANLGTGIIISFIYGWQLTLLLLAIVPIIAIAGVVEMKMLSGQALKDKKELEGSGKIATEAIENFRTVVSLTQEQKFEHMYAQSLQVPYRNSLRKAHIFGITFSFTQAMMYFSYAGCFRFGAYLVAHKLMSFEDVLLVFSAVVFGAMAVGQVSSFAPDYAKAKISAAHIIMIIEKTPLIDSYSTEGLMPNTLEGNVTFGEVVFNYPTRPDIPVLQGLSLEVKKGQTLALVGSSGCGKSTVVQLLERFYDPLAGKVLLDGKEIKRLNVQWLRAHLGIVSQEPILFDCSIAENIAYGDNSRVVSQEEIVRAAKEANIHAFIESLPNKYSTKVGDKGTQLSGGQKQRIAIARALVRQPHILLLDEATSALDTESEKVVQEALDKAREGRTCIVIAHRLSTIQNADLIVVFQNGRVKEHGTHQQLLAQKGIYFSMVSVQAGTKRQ

Regarding `COc1cc2c(cc1OC)CN(C(=O)c1ccc(-c3ccc(SC(C)C)cc3)o1)CC2`, the results for the inhibition at 50 µM (in the data set on MCF7 [1]; in data set [2]) were 33.6% and 39%, respectively.
Take `C/C=C/C[C@@H](C)[C@@H](O)[C@H]1C(=O)N[C@@H](CC)C(=O)N(C)CC(=O)N(C)[C@@H](CC(C)C)C(=O)N[C@@H](C(C)C)C(=O)N(C)[C@@H](CC(C)C)C(=O)N[C@@H](C)C(=O)N[C@H](C)C(=O)N(C)[C@@H](CC(C)C)C(=O)N(C)[C@@H](CC(C)C)C(=O)N(C)[C@@H](C(C)C)C(=O)N1C` [CYCLOSPORINE]: the figures for the inhibition at 10 µM (with MCF7 [3]; in data set [4]) were 19.3% and 22.7%, respectively.
In the case of `CC[C@]1(O)C[C@H]2CN(CCc3c([nH]c4ccccc34)[C@@](C(=O)OC)(c3cc4c(cc3OC)N(C=O)[C@H]3[C@@](O)(C(=O)OC)[C@H](OC(C)=O)[C@]5(CC)C=CCN6CC[C@]43[C@@H]65)C2)C1` [VINCRISTINE], in the data set on NCI/ADR-RES [5], inhibition was half-maximal at 10.1 µM (IC50). Besides, the “fold change (FC)” value in [6] is on record as 62.8.
Consider `COc1cc(OC)cc(-c2ccc(C(=O)N3CCc4cc(OC)c(OC)cc4C3)o2)c1`, for which the results for the inhibition at 50 µM (with MCF7 [1]; in [2]) were 81.8% and 52.9%, respectively. The inhibition – broadly, the drop in the measured response relative to a control, in per cent – at 10 µM in the data set with MCF7 [3] was determined as 19.8%; in data set [4], 21.7%.
`CCOc1ccc(-c2ccc(C(=O)N3CCc4cc(OC)c(OC)cc4C3)o2)cc1`: the values for the inhibition at 50 µM (with MCF7 [1]; in data set [2]) were 20.5% and 8.1%, respectively.
As for `COc1cc2c(cc1OC)CN(C(=O)c1ccc(-c3ccc(OC(C)C)cc3)o1)CC2`, the outcome with NCI/ADR-RES [7] was inactive. Further, the inhibition at 50 µM with MCF7 [1] was found to be 38.1%; in data set [2], 20%. Also, the “fold change (FC)” value in data set [8] was 1.9; in [9], 6.7. The entries for the “inhibition (INH)” value in data set [10], in [11] and in data set [12] were “Not Active”, “Active” and “Active”, respectively.
For the molecule `COc1cc2c(cc1OC)CN(C(=O)c1ccc(-c3ccc(OC(F)(F)F)cc3)o1)CC2`, the inhibition at 50 µM with MCF7 [1] was -4.1%; in data set [2] it was 12.7%.
Regarding `COc1ccc(-c2ccc(C(=O)N3CCc4cc(OC)c(OC)cc4C3)o2)cc1`, the inhibition at 50 µM with MCF7 [1] was 20.4%; in data set [2] it was -2.1%.
Take `COc1ccc(-c2ccc(C(=O)N3CCc4cc(OC)c(OC)cc4C3)o2)cc1OC`: the inhibition at 50 µM with MCF7 [1] turned out to be 41.8%; in data set [2], 26.7%. For the same molecule, in the data set with MCF7 [3], the inhibition at 10 µM is 17.6%.
For `CCCOc1ccc(-c2ccc(C(=O)N3CCc4cc(OC)c(OC)cc4C3)o2)cc1`, the inhibition at 50 µM stood at 36.2% with MCF7 [1] and 32.3% in [2].
For `COc1cc2c(cc1OC)CN(C(=O)c1ccc(-c3ccccc3OC)o1)CC2`, the inhibition at 50 µM is 66% with MCF7 [1] and 36.9% in data set [2]. Also, in the data set on MCF7 [3], the inhibition at 10 µM amounted to 55.9%.
With `COc1ccc(CCN(C)CCCC(C#N)(c2ccc(OC)c(OC)c2)C(C)C)cc1OC` (stereo unspecified), the figures for the inhibition at 10 µM (with MCF7 [3]; in data set [4]) were 8.3% and 25%, respectively.
Regarding `COc1cc2c(cc1OC)CN(C(=O)c1ccc(-c3ccc4c(c3)OCO4)o1)CC2`, the results for the inhibition at 50 µM (with MCF7 [1]; in [2]) were 34% and 5.4%, respectively.
For `COc1cccc(-c2ccc(C(=O)N3CCc4cc(OC)c(OC)cc4C3)o2)c1`, the results for the inhibition at 50 µM (in the data set on MCF7 [1]; in [2]) were -9.9% and 1.5%, respectively.
As to `CC(=O)O[C@H]1C(=O)[C@@]2(C)[C@H]([C@H](OC(=O)c3ccccc3)[C@]3(O)C[C@H](OC(=O)[C@H](O)[C@@H](NC(=O)c4ccccc4)c4ccccc4)C(C)=C1C3(C)C)[C@]1(OC(C)=O)CO[C@@H]1C[C@@H]2O` [PACLITAXEL], it took 58.7 µM to reach half-maximal inhibition with NCI/ADR-RES [5] (IC50). For the same molecule, the “fold change (FC)” value in [13] was determined as 22.6.
As to `COc1cc2c(cc1OC)CN(C(=O)c1ccc(-c3ccc(Oc4ccccc4)cc3)o1)CC2`, the inhibition at 50 µM in the data set with MCF7 [1] was found to be 45.4%; in data set [2] it was 57%. Further, the inhibition at 10 µM in the data set on MCF7 [3] amounted to 7%; in [4], 27.6%.
`COc1cccc2c1C(=O)c1c(O)c3c(c(O)c1C2=O)C[C@@](O)(C(C)=O)C[C@@H]3O[C@H]1C[C@H](N)[C@H](O)[C@H](C)O1` [DAUNORUBICIN]: the IC50 (in general, the concentration that inhibits the measured activity by half) in the data set on NCI/ADR-RES [5] amounted to 51.6 µM. Also, the “fold change (FC)” value in data set [14] was 2.8.
On to `COc1cc2c(cc1OC)CN(C(=O)c1ccc(-c3ccc(OC(C)(C)C)cc3)o1)CC2`, for which the inhibition at 50 µM with MCF7 [1] turned out to be 33.8%; in [2], 28.9%.
For `COc1cc2c(cc1OC)CN(C(=O)c1ccc(-c3ccc(OCC(C)C)cc3)o1)CC2`, the inhibition at 50 µM is 19.2% in the data set on MCF7 [1] and 11.9% in data set [2].
As to `COc1cc2c(cc1OC)CN(C(=O)c1ccc(-c3cccc(OC)c3OC)o1)CC2`, the inhibition at 50 µM in the data set with MCF7 [1] came out at 39.4%; in data set [2] it was 10%.
For the molecule `COc1cc2c(cc1OC)CN(C(=O)c1ccc(-c3cc(OC)c(OC)c(OC)c3)o1)CC2`, the inhibition at 50 µM with MCF7 [1] worked out at 64.7%; in data set [2] it was 51.2%. The inhibition at 10 µM in the data set with MCF7 [3] amounted to 30%; in data set [4] it was 19.6%.
Take `COc1ccc(-c2ccc(C(=O)N3CCc4cc(OC)c(OC)cc4C3)o2)c(OC)c1`: the inhibition at 50 µM was determined as 49.3% in the data set with MCF7 [1] and 59.8% in data set [2]. For the same molecule, the inhibition at 10 µM in the data set with MCF7 [3] was determined as 15.4%; in [4], 28.4%.
As to `COc1ccc(OC)c(-c2ccc(C(=O)N3CCc4cc(OC)c(OC)cc4C3)o2)c1`, the inhibition at 50 µM with MCF7 [1] came to 63.6%; in [2], 68.2%. Moreover, the inhibition at 10 µM was found to be 11.4% with MCF7 [3] and 23.2% in [4].
In the case of `CCCCOc1ccc(-c2ccc(C(=O)N3CCc4cc(OC)c(OC)cc4C3)o2)cc1`, the inhibition at 50 µM in the data set with MCF7 [1] was determined as 21%; in data set [2], 25.4%.

(Values after ChEMBL document CHEMBL4813991, “Design, synthesis and bioactivity study on 5-phenylfuran derivatives as potent reversal agents against P-glycoprotein-mediated multidrug resistance in MCF-7/ADR cell” (Eur J Med Chem, 2021).)
